Legend:
Assay type in all cases: in vivo
[1] = tested on: rice blast fungus (Magnaporthe grisea); details: Test Example 7; 200 ppm foliage spray; rice (NIHONBARE); 6 days in contact with infected seedlings
[2] = tested on: wheat rust fungus (Puccinia recondita); experiment: Wheat rust control test, foliage spray on wheat; details: Test Example 8; 200 ppm foliage spray; wheat (SHIROGANE); inoculated 5 days after spraying
Method: (§1) The control effect was evaluated by visually observing the area of lesion spots on each of test plants at the time of investigation, and comparing the area of lesion spots on a plant treated with the present control agent with that on an untreated plant. The untreated plant is a plant tested under the same conditions as in Test Examples, except that foliage application of a diluted solution of a formulation containing the present compound with water is not performed.
Each of plastic pots was filled with sandy loam and wheat (cultivar: SHIROGANE) was sowed and grown in a greenhouse for 9 days. Each of the present compounds 1 to 5, 11, and 1 was diluted with water to adjust to a predetermined concentration of 500 ppm. The obtained diluted solution was sprayed over stems and leaves of the wheat so that they sufficiently adhered to the surface of the leaves of the wheat. After spraying, the plant was air-dried and cultivated at 20° C. for 5 days under illumination, and then inoculated by sprinkling with spores of wheat rust fungus (Puccinia recondita). After the inoculation, the plant was left to stand at 23° C. for one day under dark and high humidity condition, and cultivated under illumination at 20° C. for 8 days, and then the area of lesion spots was investigated. […]

[3] = tested on: barley net blotch fungus (Pyrenophora teres); experiment: Barley net blotch control test, foliage spray on barley; details: barley (MIKAMO GOLDEN), inoculated 2 days after spraying
Method: as §1
Each of plastic pots was filled with sandy loam and barley (cultivar: MIKAMO GOLDEN) was sowed and grown in a greenhouse for 7 days. Each of the present compounds 1 to 8, 10 to 12, and 14 was diluted with water to adjust to a predetermined concentration of 500 ppm. The obtained diluted solution was sprayed over stems and leaves of the barley so that it sufficiently adhered to the surface of the leaves of the barley. After spraying, the plant was air-dried. After 2 days, an aqueous suspension containing spores of barley net blotch fungus (Pyrenophora teres) was sprayed to inoculate the spores. After completion of the inoculation, the plant was left to stand for 3 days in a greenhouse at 23° C. in the daytime and 20° C. at night under high humidity condition and cultivated in a greenhouse for 7 days, and then the area of lesion spots was investigated. […]

[4] = tested on: cucumber powdery mildew fungus (Sphaerotheca fuliginea, a QoI-resistant strain, cytochrome b position 143 glycine to alanine); experiment: Cucumber powdery mildew control test, foliage spray on cucumber; details: Test Example 6, 500 ppm foliage spray, cucumber (SAGAMI HANJIRO), 8 days after inoculation
[5] = tested on: wheat leaf blotch fungus (Septoria tritici); experiment: Wheat leaf blotch control test, foliage spray on wheat; details: Test Example 11; 200 ppm foliage spray; wheat (APOGEE); inoculated 4 days after spraying

COc1cc(-c2cc(C)c(OCc3ccccc3-n3nnn(C)c3=O)cc2C)nn1C [compound 14]
≤ 30%: lesion area on treated plant with respect to the lesion area on the non-treated plant [1] | area of lesion spots on treated plant relative to untreated plant [2] | area of lesion spots on treated plant relative to untreated plant ([3]; Test Example 3, 500 ppm foliage spray) | area of lesion spots on treated plant relative to untreated plant ([3]; Test Example 9, 200 ppm foliage spray) | area of lesion spots on treated plant relative to untreated plant [4]

COc1c(C(F)F)c(-c2ccc(OCc3ccccc3-n3nnn(C)c3=O)c(C)c2)nn1C [compound 9]
≤ 30%: area of lesion spots on treated plant relative to untreated plant [5]
